What was measured:
AsPC-1 cells = assay: AsPC-1 cell proliferation assay (CellTiter Glo); format: cell-based; details: 6 days
Outline: (§1)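 Degradation: 22,000 cells/well grown to ~90% confluency, 24 h compound, fixed/permeabilised, anti-KRAS G12D + β-actin antibodies, near-IR fluorescence, DC50. Proliferation: 3,500 cells/well overnight, 6 d compound, CellTiter Glo luminescence, IC50. Dosing […]–1.5 nM final, 1:3 steps.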

KRAS (G12D) = target: T1, KRAS (G12D) (Homo sapiens, UniProt P01116, G12D); assay: KRAS (G12D) cellular degradation assay in AsPC-1 cells; format: cell-based; details: 24 hours, antibody fluorescence (Odyssey CLX), DC50 half-maximal degradation concentration
T1 construct: in-cell western with KRAS G12D antibody after 24 h
T1 sequence (P01116 1-188 isoform P01116-2 G12D): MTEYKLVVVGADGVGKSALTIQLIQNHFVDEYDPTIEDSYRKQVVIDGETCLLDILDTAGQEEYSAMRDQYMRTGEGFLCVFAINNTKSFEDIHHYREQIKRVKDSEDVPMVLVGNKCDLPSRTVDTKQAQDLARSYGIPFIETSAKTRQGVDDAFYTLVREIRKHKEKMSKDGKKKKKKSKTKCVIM
Outline: as §1

Row | Compound | IC50 (AsPC-1 cells; Homo sapiens, ASPC1, 144 h) | DC50 (KRAS (G12D)) | IC50 (AsPC-1 cells)
1 | Cc1ncsc1-c1ccc([C@@H](NC(=O)[C@@H]2C[C@@H](O)CN2C(=O)[C@H](C(C)C)n2cc(-c3ccc(COc4c(-c5c(C)c(F)cc6[nH]ncc56)c(C5CC5)cc5c(N6C[C@@H]7C[C@H]6CN7)nc(OC6CC7(COC7)C6)nc45)cc3)nn2)[C@@H](C)O)cc1 [Example 150, (2S,4R)-1-((2S)-2-(4-(4-(((2-((2-oxaspiro[3.3]heptan-6-yl)oxy)-4-((1S,4S)-2,5-diazabicyclo[2.2.1]heptan-2-yl)-6-cyclopropyl-7-(6-fluoro-5-methyl-1H-indazol-4-yl)quinazolin-8-yl)oxy)methyl)phenyl)-1H-1,2,3-triazol-1-yl)-3-methylbutanoyl)-4-hydroxy-N-((1R,2R)-2-hydroxy-1-(4-(4-methylthiazol-5-yl)phenyl)propyl)pyrrolidine-2-carboxamide] | < 10 nM | < 10 nM | –
2 | CCn1nccc1-c1ccc([C@@H](NC(=O)[C@@H]2C[C@@H](O)CN2C(=O)[C@H](C(C)C)n2cc(-c3ccc(COc4c(-c5c(C)c(F)cc6[nH]ncc56)c(C5CC5)cc5c(N6C[C@@H]7C[C@H]6CN7)nc(O[C@H]6CC[C@H](OC)C6)nc45)cc3)nn2)[C@H](C)O)cc1 [Example 151, (2S,4R)-1-((2S)-2-(4-(4-(((4-((1S,4S)-2,5-diazabicyclo[2.2.1]heptan-2-yl)-6-cyclopropyl-7-(6-fluoro-5-methyl-1H-indazol-4-yl)-2-(((1S,3S)-3-methoxycyclopentyl)oxy)quinazolin-8-yl)oxy)methyl)phenyl)-1H-1,2,3-triazol-1-yl)-3-methylbutanoyl)-N-((1R,2S)-1-(4-(1-ethyl-1H-pyrazol-5-yl)phenyl)-2-hydroxypropyl)-4-hydroxypyrrolidine-2-carboxamide] | < 10 nM | < 10 nM | –
3 | CCn1nccc1-c1ccc([C@H](CO)NC(=O)[C@@H]2C[C@@H](O)CN2C(=O)[C@H](C(C)C)n2cc(-c3ccc(COc4c(-c5c(C)c(F)cc6[nH]ncc56)c(C5CC5)cc5c(N6C[C@@H]7C[C@H]6CN7)nc(OC[C@H](C)OC)nc45)cc3)nn2)c2c1CC2 [Example 152, (2S,4R)-1-((2S)-2-(4-(4-(((4-((1S,4S)-2,5-diazabicyclo[2.2.1]heptan-2-yl)-6-cyclopropyl-7-(6-fluoro-5-methyl-1H-indazol-4-yl)-2-((S)-2-methoxypropoxy)quinazolin-8-yl)oxy)methyl)phenyl)-1H-1,2,3-triazol-1-yl)-3-methylbutanoyl)-N—((R)-1-(5-(1-ethyl-1H-pyrazol-5-yl)bicyclo[4.2.0]octa-1(6),2,4-trien-2-yl)-2-hydroxyethyl)-4-hydroxypyrrolidine-2-carboxamide] | < 10 nM | < 10 nM | –
4 | CCn1nccc1-c1ccc([C@H](CO)NC(=O)[C@@H]2C[C@@H](O)CN2C(=O)[C@H](C(C)C)n2cc(-c3ccc(COc4c(-c5c(C)c(F)cc6[nH]ncc56)c(C5CC5)cc5c(N6CCNCC[C@H]6C)nc(OC[C@H](C)OC)nc45)cc3)nn2)cc1 [Example 154, (2S,4R)-1-((2S)-2-(4-(4-(((6-cyclopropyl-7-(6-fluoro-5-methyl-1H-indazol-4-yl)-2-((S)-2-methoxypropoxy)-4-((R)-7-methyl-1,4-diazepan-1-yl)quinazolin-8-yl)oxy)methyl)phenyl)-1H-1,2,3-triazol-1-yl)-3-methylbutanoyl)-N—((R)-1-(4-(1-ethyl-1H-pyrazol-5-yl)phenyl)-2-hydroxyethyl)-4-hydroxypyrrolidine-2-carboxamide] | < 10 nM | < 10 nM | –
5 | CCn1nccc1-c1ccc([C@@H](NC(=O)[C@@H]2C[C@@H](O)CN2C(=O)[C@H](C(C)C)n2cc(-c3ccc(COc4c(-c5c(C)c(F)cc6[nH]ncc56)c(C5CC5)cc5c(N6CCCNCC6)nc(O[C@H]6C[C@H](OC)C6)nc45)cc3)nn2)[C@H](C)O)cc1 [Example 156, (2S,4R)-1-((2S)-2-(4-(4-(((6-cyclopropyl-4-(1,4-diazepan-1-yl)-7-(6-fluoro-5-methyl-1H-indazol-4-yl)-2-((1r,3r)-3-methoxycyclobutoxy)quinazolin-8-yl)oxy)methyl)phenyl)-1H-1,2,3-triazol-1-yl)-3-methylbutanoyl)-N-((1R,2S)-1-(4-(1-ethyl-1H-pyrazol-5-yl)phenyl)-2-hydroxypropyl)-4-hydroxypyrrolidine-2-carboxamide] | < 10 nM | < 10 nM | –
6 | CO[C@@H](C)COc1nc(N2CCCNCC2)c2cc(C3CC3)c(-c3c(C)c(F)cc4[nH]ncc34)c(OCc3ccc(-c4cn([C@H](C(=O)N5C[C@H](O)C[C@H]5C(=O)N[C@H](c5ccc(-c6scnc6C)cc5)[C@H](C)O)C(C)C)nn4)cc3)c2n1 [Example 157, (2S,4R)-1-((2S)-2-(4-(4-(((6-cyclopropyl-4-(1,4-diazepan-1-yl)-7-(6-fluoro-5-methyl-1H-indazol-4-yl)-2-((S)-2-methoxypropoxy)quinazolin-8-yl)oxy)methyl)phenyl)-1H-1,2,3-triazol-1-yl)-3-methylbutanoyl)-4-hydroxy-N-((1R,2S)-2-hydroxy-1-(4-(4-methylthiazol-5-yl)phenyl)propyl)pyrrolidine-2-carboxamide] | < 10 nM | < 10 nM | –
7 | CCn1nccc1-c1ccc([C@H](CO)NC(=O)[C@@H]2C[C@@H](O)CN2C(=O)[C@H](C(C)C)n2cc(-c3ccc(COc4c(-c5c(C)c(F)cc6[nH]ncc56)c(C5CC5)cc5c(N6CCC=CCC6)nc(OC[C@H](C)OC)nc45)cc3)nn2)cc1 [Example 158, (2S,4R)-1-((2S)-2-(4-(4-(((6-cyclopropyl-7-(6-fluoro-5-methyl-1H-indazol-4-yl)-2-((S)-2-methoxypropoxy)-4-(2,3,6,7-tetrahydro-1H-azepin-1-yl)quinazolin-8-yl)oxy)methyl)phenyl)-1H-1,2,3-triazol-1-yl)-3-methylbutanoyl)-N—((R)-1-(4-(1-ethyl-1H-pyrazol-5-yl)phenyl)-2-hydroxyethyl)-4-hydroxypyrrolidine-2-carboxamide] | 10 to 100 nM | 10 to 100 nM | –
8 | CO[C@@H](C)COc1nc(N(C)[C@H]2CCNC2)c2cc(C3CCC3)c(-c3c(C)c(F)cc4[nH]ncc34)c(OCc3ccc(-c4cn([C@H](C(=O)N5C[C@H](O)C[C@H]5C(=O)N[C@H](c5ccc(-c6scnc6C)cc5)[C@H](C)O)C(C)C)nn4)cc3)c2n1 [Example 159, (2S,4R)-1-((2S)-2-(4-(4-(((6-cyclobutyl-7-(6-fluoro-5-methyl-1H-indazol-4-yl)-2-((S)-2-methoxypropoxy)-4-(methyl((S)-pyrrolidin-3-yl)amino)quinazolin-8-yl)oxy)methyl)phenyl)-1H-1,2,3-triazol-1-yl)-3-methylbutanoyl)-4-hydroxy-N-((1R,2S)-2-hydroxy-1-(4-(4-methylthiazol-5-yl)phenyl)propyl)pyrrolidine-2-carboxamide] | – | < 10 nM | < 10 nM

From patent US20260295053A1, “COMPOUNDS FOR DEGRADATION AND INHIBITION OF KRAS (G12D) PROTEIN” (Shenzhen Ionova Life Science Co., Ltd., priority 2023, published 2026)
